Ends that are not written are not given here.
What was measured:
[1] = tested on: Mannheimia haemolytica ATCC 33393; assay: MIC, broth dilution; type: cell-based; conditions: Table 11; highest concentration 25 μg/mL
Procedure: (§1) MIC determination. MICs were measured using peptides with 95% purity. For bacterial studies, cation-adjusted Mueller Hinton (MH) broth was used as the growth medium whereas Yeast Peptone Dextrose (YPD; 10 g/L yeast extract, 20 g/L peptone, 20 g/L dextrose) was used for Candida spp. and other yeast. Microorganisms were diluted to an optical density of […] in MH or YPD broth and a 180 μl volume was mixed with 20 μl of peptide arrayed as a 2-fold dilution series in a flat-bottom 96-well microtitre plate. A control was performed using 20 μl of sterile water. Plates were incubated as standing cultures overnight at 37° C.
(§2) Determination of minimum inhibitory concentrations. The MICs were measured for bioactive peptides identified from the initial screen. For bacterial studies, cation-adjusted Mueller Hinton (MH) broth was used as the growth medium whereas YPD was used for C. albicans. Bacterial cultures were diluted to a OD value of 6×10^−4 in MH broth and a 180 μl volume was mixed with 20 μl of peptide arrayed as 2-fold dilution series in a 96-well plate. For the positive control, 20 μl of sterile water was used. Plates were incubated as standing cultures overnight at 37° C. The lowest peptide concentration that resulted no observed microbial growth after an overnight treatment was defined as the MIC.
The ability of STIP3 variants to inhibit the growth of Mannheimia haemolytica ATCC 33393 was evaluated. This included an alanine scan of STIP3-1 (FIG. 8 & Table 10) as well as 30 rationally-designed STIPs that were evaluated in the preceding Examples against other pathogens (Table 11). Substitutions at a greater number of sites were tolerated in the context of antimicrobial activity. Moreover, the inclusion of basic natural and unnatural amino acids (e.g. lysine, ornithine, and arginine) at positions 3, 4 and 11 (i.e. X1, X2, and X4 of SEQ ID NO: 32) to afford a more uniformly cationic peptide increased activity against M. haemolytica.

[2] = tested on: S. aureus ATCC BAA-2313 (MRSA SCCmec type XI); assay: MIC, broth dilution; type: cell-based, Staphylococcus aureus; conditions: Table 5; STIP3 variants, highest concentration 100 μg/mL
Procedure: as §1, §2

[3] = tested on: S. aureus ATCC BAA-2094 (MRSA SCCmec type V); assay: MIC, broth dilution; type: cell-based, Staphylococcus aureus; conditions: Table 5; STIP3 variants, highest concentration 100 μg/mL
Procedure: as §1, §2

[4] = tested on: S. aureus ATCC 33592 (MRSA SCCmec type III); assay: MIC, broth dilution; type: cell-based, Staphylococcus aureus; conditions: Table 5; STIP3 variants, highest concentration 100 μg/mL
Procedure: as §1, §2

[5] = tested on: S. aureus ATCC BAA-41 (MRSA SCCmec type II); assay: MIC, broth dilution; type: cell-based, Staphylococcus aureus; conditions: Table 5; STIP3 variants, highest concentration 100 μg/mL
Procedure: as §1, §2

[6] = tested on: S. aureus ATCC BAA-1683 (MRSA SCCmec type IV); assay: MIC, broth dilution; type: cell-based, Staphylococcus aureus; conditions: Table 5; STIP3 variants, highest concentration 100 μg/mL
Procedure: as §1, §2

S. aureus ATCC 29213 = assay: MIC, broth dilution; type: cell-based, Staphylococcus aureus; conditions: Table 5; STIP3 variants, highest concentration 100 μg/mL
Procedure: as §1, §2

[7] = tested on: S. aureus ATCC BAA-42 (MRSA SCCmec type VI); assay: MIC, broth dilution; type: cell-based, Staphylococcus aureus; conditions: Table 5; STIP3 variants, highest concentration 100 μg/mL
Procedure: as §1, §2

[8] = tested on: S. aureus ATCC BAA-44 (MRSA SCCmec type I); assay: MIC, broth dilution; type: cell-based, Staphylococcus aureus; conditions: Table 5; STIP3 variants, highest concentration 100 μg/mL
Procedure: as §1, §2

[9] = tested on: Saccharomyces cerevisiae AR 400; assay: MIC, YPD broth, CDC and FDA AR Candida isolate panel; type: cell-based; conditions: Table 9 below the line: only 200 or 100 μg/mL tested; values reported as 100 are ≤100 μg/mL
Procedure: as §1

[10] = tested on: Candida haemulonii AR 393; assay: as above; type: cell-based; conditions: Table 9 below the line: only 200 or 100 μg/mL tested; values reported as 100 are ≤100 μg/mL
Procedure: as §1

Kodamae ohmeri AR 396 = assay: as above; type: cell-based; conditions: Table 9 below the line: only 200 or 100 μg/mL tested; values reported as 100 are ≤100 μg/mL
Procedure: as §1

[11] = tested on: Candida duobushaemulonii AR 394; assay: as above; type: cell-based; conditions: Table 9 below the line: only 200 or 100 μg/mL tested; values reported as 100 are ≤100 μg/mL
Procedure: as §1

[12] = tested on: Candida lusitaniae AR 398; assay: as above; type: cell-based; conditions: Table 9 below the line: only 200 or 100 μg/mL tested; values reported as 100 are ≤100 μg/mL
Procedure: as §1

[13] = tested on: Candida haemulonii AR 395; assay: as above; type: cell-based; conditions: Table 9 below the line: only 200 or 100 μg/mL tested; values reported as 100 are ≤100 μg/mL
Procedure: as §1

[14] = tested on: Candida duobushaemulonii AR 391; assay: as above; type: cell-based; conditions: Table 9 below the line: only 200 or 100 μg/mL tested; values reported as 100 are ≤100 μg/mL
Procedure: as §1

Candida krusei AR 397 = assay: as above; type: cell-based; conditions: Table 9 below the line: only 200 or 100 μg/mL tested; values reported as 100 are ≤100 μg/mL
Procedure: as §1

[15] = tested on: Candida duobushaemulonii AR 392; assay: as above; type: cell-based; conditions: Table 9 below the line: only 200 or 100 μg/mL tested; values reported as 100 are ≤100 μg/mL
Procedure: as §1

[16] = tested on: Saccharomyces cerevisiae AR 399; assay: as above; type: cell-based; conditions: Table 9 below the line: only 200 or 100 μg/mL tested; values reported as 100 are ≤100 μg/mL
Procedure: as §1

C. albicans MYA-2876 = assay: MIC, YPD broth; type: cell-based, Candida albicans; conditions: Table 8
Procedure: as §1, §2

Sequence	MIC (μg/mL) M. haemolytica [1]	MIC S. aureus ATCC BAA 2313 (XI) [2]	MIC S. aureus ATCC BAA 2094 (V) [3]	MIC S. aureus ATCC 33592 (III) [4]	MIC S. aureus ATCC BAA 41 (II) [5]	MIC S. aureus ATCC BAA 1683 (IV) [6]	MIC S. aureus ATCC 29213 (S. aureus ATCC 29213)	MIC S. aureus ATCC BAA 42 (VI) [7]	MIC S. aureus ATCC BAA 44 (I) [8]	MIC (μg/mL) Saccharomyces cerevisiae AR 400 [9] [µg/mL]	MIC (μg/mL) Candida haemulonii AR 393 [10]	MIC (μg/mL) Kodamae ohmeri AR 396 (Kodamae ohmeri AR 396)	MIC (μg/mL) Candida duobushaemulonii AR 394 [11]	MIC (μg/mL) Candida lusitaniae AR 398 [12] [µg/mL]	MIC (μg/mL) Candida haemulonii AR 395 [13]	MIC (μg/mL) Candida duobushaemulonii AR 391 [14]	MIC (μg/mL) Candida krusei AR 397 (Candida krusei AR 397) [µg/mL]	MIC (μg/mL) Candida duobushaemulonii AR 392 [15]	MIC (μg/mL) Saccharomyces cerevisiae AR 399 [16] [µg/mL]	MIC C. albicans MYA-2876 (C. albicans MYA-2876) [µg/mL]
TVAGLVKWILATVKKFA [STIP3-15, TVAGLVKWILATVKKFA]	25 µg/mL	50 µg/mL	25 µg/mL	12.5 µg/mL	50 µg/mL	25 µg/mL	25 µg/mL	50 µg/mL	25 µg/mL	≤ 100	> (values below the line were determined using two concentrations of peptide 200 or 100 μg/mL)	≤ 100 µg/mL	> (values below the line were determined using two concentrations of peptide 200 or 100 μg/mL)	≤ 100	> (values below the line were determined using two concentrations of peptide 200 or 100 μg/mL)	> (values below the line were determined using two concentrations of peptide 200 or 100 μg/mL)	≤ 100	> (values below the line were determined using two concentrations of peptide 200 or 100 μg/mL)	≤ 100	25
TVDGLVKWILATVKKFA [STIP3-17, TVDGLVKWILATVKKFA]	> (> symbol indicates that no inhibition was observed at the highest concentration of peptide tested: 25 μg/mL)	> (no inhibition was observed at the highest concentration of peptide tested: 100 μg/mL for the STIP3 variants)	> (no inhibition was observed at the highest concentration of peptide tested: 100 μg/mL for the STIP3 variants)	> (no inhibition was observed at the highest concentration of peptide tested: 100 μg/mL for the STIP3 variants)	> (no inhibition was observed at the highest concentration of peptide tested: 100 μg/mL for the STIP3 variants)	> (no inhibition was observed at the highest concentration of peptide tested: 100 μg/mL for the STIP3 variants)	> (no inhibition was observed at the highest concentration of peptide tested: 100 μg/mL for the STIP3 variants)	> (no inhibition was observed at the highest concentration of peptide tested: 100 μg/mL for the STIP3 variants)	> (no inhibition was observed at the highest concentration of peptide tested: 100 μg/mL for the STIP3 variants)	≤ 100	> (values below the line were determined using two concentrations of peptide 200 or 100 μg/mL)	> (values below the line were determined using two concentrations of peptide 200 or 100 μg/mL)	> (values below the line were determined using two concentrations of peptide 200 or 100 μg/mL)	≤ 100	> (values below the line were determined using two concentrations of peptide 200 or 100 μg/mL)	> (values below the line were determined using two concentrations of peptide 200 or 100 μg/mL)	≤ 100	> (values below the line were determined using two concentrations of peptide 200 or 100 μg/mL)	≤ 100	12.5
TVGGLVKWILAAVKKFA [STIP3-12, TVGGLVKWILAAVKKFA]	25 µg/mL	25 µg/mL	50 µg/mL	25 µg/mL	25 µg/mL	25 µg/mL	25 µg/mL	25 µg/mL	25 µg/mL	≤ 100	> (values below the line were determined using two concentrations of peptide 200 or 100 μg/mL)	> (values below the line were determined using two concentrations of peptide 200 or 100 μg/mL)	> (values below the line were determined using two concentrations of peptide 200 or 100 μg/mL)	≤ 100	> (values below the line were determined using two concentrations of peptide 200 or 100 μg/mL)	> (values below the line were determined using two concentrations of peptide 200 or 100 μg/mL)	≤ 100	> (values below the line were determined using two concentrations of peptide 200 or 100 μg/mL)	≤ 100	100
TVGGLVKWILDTFKKFA [STIP3-11, TVGGLVKWILDTFKKFA]	> (> symbol indicates that no inhibition was observed at the highest concentration of peptide tested: 25 μg/mL)	100 µg/mL	100 µg/mL	50 µg/mL	50 µg/mL	50 µg/mL	50 µg/mL	50 µg/mL	100 µg/mL	≤ 100	> (values below the line were determined using two concentrations of peptide 200 or 100 μg/mL)	> (values below the line were determined using two concentrations of peptide 200 or 100 μg/mL)	> (values below the line were determined using two concentrations of peptide 200 or 100 μg/mL)	≤ 100	> (values below the line were determined using two concentrations of peptide 200 or 100 μg/mL)	> (values below the line were determined using two concentrations of peptide 200 or 100 μg/mL)	≤ 100	> (values below the line were determined using two concentrations of peptide 200 or 100 μg/mL)	≤ 100	25

— patent US12370235B2, “Synthetic, non-natural antimicrobial peptides inspired by Staphylococcus auricularis delta toxin” (University of Saskatchewan, priority 2021, dated 2025)
